# Experimental data taken from patent US10363239B2, “Method for inhibiting growth of cancer cells” (Pain Therapeutics, Inc., priority 2013, dated 2019).
# Read-outs that look alike come from different tables or passages of the source.
# Key:
# [1] = molecular target: FLNA pentapeptide of SEQ ID NO: 1 (Bn-VAKGL) (Homo sapiens, UniProt P21333); experiment: FITC-NLX-based FLNA screening assay (inhibition of FITC-naloxone binding to Bn-VAKGL on streptavidin plates); conditions: 10 nM FITC-NLX
# mu opiate receptor (MOR) = experiment: MOR agonist activity using [35S]GTPγS binding assay in striatal membranes; format: biochemical; conditions: for MOR agonist activity ([35S]GTPγS binding), FLNA-Binding Compound as Agonist 1 μM + BFNA: 1 μM compound + 1 μM β-funaltrexamine
# Procedure, shortened: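 Striatal membranes (200 μg) were preincubated 5 min at 30 °C in HEPES pH 7.5 with 100 mM NaCl, 1 mM MgCl2 and 0.5 nM [35S]GTPγS, then 5 min more with 0.1–10 μM compound. Gαo was immunoprecipitated and bound radioactivity counted by scintillation.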
# [2] = FLNA-binding compound 0.01 μM, read-out: Percent Binding Inhibition
# [3] = FLNA-binding compound 0.1 μM, read-out: Percent Binding Inhibition
# [4] = FLNA-binding compound 1 μM, read-out: Percent Binding Inhibition
# [5] = Series C-1, 0.1 μM compound, relative to DAMGO
# [6] = Series C-1, 0.1 μM compound, [35S]GTPγS binding to Gαo, striatal membranes
# [7] = Series C-1, 1 μM compound + 1 μM β-FNA
# [8] = Series C-1, 1 μM compound + β-FNA, relative to DAMGO + BFNA
# [9] = Series C-1, 1 μM compound, relative to DAMGO
# [10] = Series C-1, 1 μM compound, [35S]GTPγS binding to Gαo, striatal membranes
# [11] = 0.1 μM compound relative to DAMGO
# [12] = 1 μM compound + BFNA relative to DAMGO + BFNA
# [13] = 1 μM compound relative to DAMGO
# [14] = read-out: Percent Binding Inhibition, FLNA-binding compound 0.01 μM
# [15] = read-out: Percent Binding Inhibition, FLNA-binding compound 0.1 μM
# [16] = read-out: Percent Binding Inhibition, FLNA-binding compound 1 μM
# [17] = Series B, 0.1 μM compound, relative to DAMGO
# [18] = Series B, 0.1 μM compound, [35S]GTPγS binding to Gαo, striatal membranes
# [19] = Series B, 1 μM compound + 1 μM β-FNA
# [20] = Series B, 1 μM compound + β-FNA, relative to DAMGO + BFNA
# [21] = Series B, 1 μM compound, relative to DAMGO
# [22] = Series B, 1 μM compound, [35S]GTPγS binding to Gαo, striatal membranes
# [23] = Series C-2, 0.1 μM compound, relative to DAMGO
# [24] = Series C-2, 0.1 μM compound, [35S]GTPγS binding to Gαo, striatal membranes
# [25] = Series C-2, 1 μM compound + 1 μM β-FNA
# [26] = Series C-2, 1 μM compound + β-FNA, relative to DAMGO + BFNA
# [27] = Series C-2, 1 μM compound, relative to DAMGO
# [28] = Series C-2, 1 μM compound, [35S]GTPγS binding to Gαo, striatal membranes
SMILES,"MOR agonist activity ([35S]GTPγS binding), FLNA-Binding Compound as Agonist 0.1 μM (mu opiate receptor (MOR); 0.1 μM compound) [%]",% DAMGO (0.1 μM) (mu opiate receptor (MOR); [11]) [%],"MOR agonist activity ([35S]GTPγS binding), FLNA-Binding Compound as Agonist 1 μM (mu opiate receptor (MOR); 1 μM compound) [%]","MOR agonist activity ([35S]GTPγS binding), FLNA-Binding Compound as Agonist 1 μM + BFNA (mu opiate receptor (MOR)) [%]",% DAMGO + BFNA (mu opiate receptor (MOR); [12]) [%],% DAMGO (1 μM) (mu opiate receptor (MOR); [13]) [%],"inhibition at 0.01 µM [1, 14] [%]","inhibition at 0.1 µM [1, 15] [%]","inhibition at 1 µM [1, 16] [%]",further results
COc1ccc(S(=O)(=O)N2CCC3(OCCN3S(=O)(=O)c3ccc(OC)cc3)C3CCCCC32)cc1 (stereo not drawn) [Compound C0144M],,,,,,,,,,"inhibition at 0.01 µM [1, 2]: 46.4%; inhibition at 0.1 µM [1, 3]: 50.7%; inhibition at 1 µM [1, 4]: 55.7%; % DAMGO (0.1 μM) (mu opiate receptor (MOR); [5]): 108.3%; Concentration of FLNA-Binding Compound as Agonist 0.1 μM (mu opiate receptor (MOR); [6]): 186.3%; Concentration of FLNA-Binding Compound as Agonist 1 μM + BFNA (mu opiate receptor (MOR); [7]): 125.9%; % DAMGO + BFNA (mu opiate receptor (MOR); [8]): 137.9%; % DAMGO (1 μM) (mu opiate receptor (MOR); [9]): 90.8%; Concentration of FLNA-Binding Compound as Agonist 1 μM (mu opiate receptor (MOR); [10]): 295.9%"
CC1CN(CC(O)COc2ccccc2C(C)C)CC(C)O1 (stereo not drawn) [Compound A0029],173.8,98.4,206.5,22.3,84.8,81.2,,,,"inhibition at 0.01 µM [1, 2]: 44.4%; inhibition at 0.1 µM [1, 3]: 44.4%; inhibition at 1 µM [1, 4]: 50.8%"
COc1c2c(cc3c1C(CC(=O)c1cccc(C(F)(F)F)c1)[N+](C)(C)CC3)OCO2 (stereo not drawn) [Compound B0006],,,,,,,45.1,53.5,61.3,"% DAMGO (0.1 μM) (mu opiate receptor (MOR); [17]): 44.8%; MOR agonist activity, percent [35S]GTPγS binding at the stated compound concentration (mu opiate receptor (MOR); [18]): 77.0%; MOR agonist activity, percent [35S]GTPγS binding at the stated compound concentration (mu opiate receptor (MOR); [19]): 18.6%; % DAMGO + BFNA (mu opiate receptor (MOR); [20]): 29.0%; % DAMGO (1 μM) (mu opiate receptor (MOR); [21]): 47.5%; MOR agonist activity, percent [35S]GTPγS binding at the stated compound concentration (mu opiate receptor (MOR); [22]): 131.3%"
COc1c2c(cc3c1C(CC(O)CCc1ccccc1)[N+](C)(C)CC3)OCO2 (stereo not drawn) [Compound B0052],,,,,,,30.2,39.1,44.3,"% DAMGO (0.1 μM) (mu opiate receptor (MOR); [17]): 58.1%; MOR agonist activity, percent [35S]GTPγS binding at the stated compound concentration (mu opiate receptor (MOR); [18]): 98.2%; MOR agonist activity, percent [35S]GTPγS binding at the stated compound concentration (mu opiate receptor (MOR); [19]): 40.9%; % DAMGO + BFNA (mu opiate receptor (MOR); [20]): 246.4%; % DAMGO (1 μM) (mu opiate receptor (MOR); [21]): 69.3%; MOR agonist activity, percent [35S]GTPγS binding at the stated compound concentration (mu opiate receptor (MOR); [22]): 151.7%"
CC1CCC(C(C)C)C(OCC(O)CN2CCOc3ccccc32)C1 (stereo not drawn) [Compound A0066],151.9,88.3,195.6,59.2,171.6,89.0,,,,Percent Binding Inhibition ([1]; FLNA-binding compound 0.01 μM): 36.7%; Percent Binding Inhibition ([1]; FLNA-binding compound 0.1 μM): 45.4%; Percent Binding Inhibition ([1]; FLNA-binding compound 1 μM): 53.7%
Cc1ccc(C(C)C)c(OCC(O)CN2CC(C)OC(C)C2)c1 (stereo not drawn) [Compound A0028],143.6,81.3,187.7,116.7,443.7,73.8,,,,"inhibition at 0.01 µM [1, 2]: 39.5%; inhibition at 0.1 µM [1, 3]: 43.8%; inhibition at 1 µM [1, 4]: 50.5%"
COc1ccc(CCC(=O)CC2c3c(cc4c(c3OC)OCO4)CC[N+]2(C)C)c(OC)c1 (stereo not drawn) [Compound B0043],,,,,,,30.8,39.2,46.8,"% DAMGO (0.1 μM) (mu opiate receptor (MOR); [17]): 42.4%; MOR agonist activity, percent [35S]GTPγS binding at the stated compound concentration (mu opiate receptor (MOR); [18]): 74.8%; MOR agonist activity, percent [35S]GTPγS binding at the stated compound concentration (mu opiate receptor (MOR); [19]): 166.4%; % DAMGO + BFNA (mu opiate receptor (MOR); [20]): 632.7%; % DAMGO (1 μM) (mu opiate receptor (MOR); [21]): 97.6%; MOR agonist activity, percent [35S]GTPγS binding at the stated compound concentration (mu opiate receptor (MOR); [22]): 248.1%"
COc1c2c(cc3c1C(CC(=O)Cc1ccccc1C)[N+](C)(C)CC3)OCO2 (stereo not drawn) [Compound B0031],,,,,,,36.2,44.2,50.5,"% DAMGO (0.1 μM) (mu opiate receptor (MOR); [17]): 109.6%; MOR agonist activity, percent [35S]GTPγS binding at the stated compound concentration (mu opiate receptor (MOR); [18]): 210.8%; MOR agonist activity, percent [35S]GTPγS binding at the stated compound concentration (mu opiate receptor (MOR); [19]): 28.8%; % DAMGO + BFNA (mu opiate receptor (MOR); [20]): 65.6%; % DAMGO (1 μM) (mu opiate receptor (MOR); [21]): 99.6%; MOR agonist activity, percent [35S]GTPγS binding at the stated compound concentration (mu opiate receptor (MOR); [22]): 272.0%"
OC(COc1ccc(Br)c(F)c1)CN1CCSCC1 (stereo not drawn) [Compound A0059],99.2,63.5,129.9,85.7,214.8,56.4,27.4,36.6,38.7,
CC1CCC(C(C)C)C(OCC(O)CN2CC(C)OC(C)C2)C1 (stereo not drawn) [Compound A3333],170.7,88.9,328.3,65.9,136.7,101.0,,,,Percent Binding Inhibition ([1]; FLNA-binding compound 0.01 μM): 40.4%; Percent Binding Inhibition ([1]; FLNA-binding compound 0.1 μM): 48.5%; Percent Binding Inhibition ([1]; FLNA-binding compound 1 μM): 54.2%
COc1cc(S(=O)(=O)N2CCC3(CC2)OCCN3S(=O)(=O)c2cc(OC)c(OC)c(OC)c2)cc(OC)c1OC [Compound C0062],,,,,,,,,,"inhibition at 0.01 µM [1, 2]: 39.5%; inhibition at 0.1 µM [1, 3]: 49.5%; inhibition at 1 µM [1, 4]: 48%; % DAMGO (0.1 μM) (mu opiate receptor (MOR); [5]): 81.9%; Concentration of FLNA-Binding Compound as Agonist 0.1 μM (mu opiate receptor (MOR); [6]): 127.8%; Concentration of FLNA-Binding Compound as Agonist 1 μM + BFNA (mu opiate receptor (MOR); [7]): 59.8%; % DAMGO + BFNA (mu opiate receptor (MOR); [8]): 149.9%; % DAMGO (1 μM) (mu opiate receptor (MOR); [9]): 134.7%; Concentration of FLNA-Binding Compound as Agonist 1 μM (mu opiate receptor (MOR); [10]): 310.5%"
CC(=O)c1ccc(S(=O)(=O)N2CC(=O)NC23CCNCC3)cc1 [Compound C0086M],,,,,,,37.9,48.1,53.4,"% DAMGO (0.1 μM) (mu opiate receptor (MOR); [23]): 117.5%; MOR agonist activity, percent [35S]GTPγS binding at the stated compound concentration (mu opiate receptor (MOR); [24]): 206.8%; MOR agonist activity, percent [35S]GTPγS binding at the stated compound concentration (mu opiate receptor (MOR); [25]): 152.3%; % DAMGO + BFNA (mu opiate receptor (MOR); [26]): 692.3%; % DAMGO (1 μM) (mu opiate receptor (MOR); [27]): 104.9%; MOR agonist activity, percent [35S]GTPγS binding at the stated compound concentration (mu opiate receptor (MOR); [28]): 265.3%"
CC1CCC(C(C)C)C(OCC(O)CN2CCC(=O)C(C)C2)C1 (stereo not drawn) [Compound A0056],115.6,74.1,129.6,17.4,43.6,56.2,34.4,40.9,41.3,
CCc1ccc(S(=O)(=O)N2CCOC23CCN(CC2CC2)CC3)cc1 [Compound C0135M],,,,,,,53.9,55.1,62.3,"% DAMGO (0.1 μM) (mu opiate receptor (MOR); [23]): 85.3%; MOR agonist activity, percent [35S]GTPγS binding at the stated compound concentration (mu opiate receptor (MOR); [24]): 161.3%; MOR agonist activity, percent [35S]GTPγS binding at the stated compound concentration (mu opiate receptor (MOR); [25]): 113.3%; % DAMGO + BFNA (mu opiate receptor (MOR); [26]): 233.6%; % DAMGO (1 μM) (mu opiate receptor (MOR); [27]): 124.9%; MOR agonist activity, percent [35S]GTPγS binding at the stated compound concentration (mu opiate receptor (MOR); [28]): 310.1%"
CC1CCC(C(C)C)C(OCC(O)Cn2ccc3ccccc32)C1 (stereo not drawn) [Compound A0078],250.5,124.9,289.9,147.8,274.2,92.3,50.1,55.8,57.6,
CC1CCC(C(C)C)C(OCC(O)CN(C(C)C)C(C)C)C1 (stereo not drawn) [Compound A0037],177.9,90.7,236.2,104.6,141.5,85.6,49.3,51.3,56.8,
COc1c2c(cc3c1C(CC(=O)c1ccncc1)[N+](C)(C)CC3)OCO2 (stereo not drawn) [Compound B0005],,,,,,,31.8,34.8,41.7,"% DAMGO (0.1 μM) (mu opiate receptor (MOR); [17]): 50.5%; MOR agonist activity, percent [35S]GTPγS binding at the stated compound concentration (mu opiate receptor (MOR); [18]): 89.2%; MOR agonist activity, percent [35S]GTPγS binding at the stated compound concentration (mu opiate receptor (MOR); [19]): 45.1%; % DAMGO + BFNA (mu opiate receptor (MOR); [20]): 68.6%; % DAMGO (1 μM) (mu opiate receptor (MOR); [21]): 42.6%; MOR agonist activity, percent [35S]GTPγS binding at the stated compound concentration (mu opiate receptor (MOR); [22]): 110.4%"
